Values belong to the molecule of their own block, whether it stands above or below them. Where a SMILES comes first, the peptide text is derived from it.
Columns and labels:
[1] = pH of AQ4N salts in aqueous solution; format: physicochemical; conditions: 1.4 mM in water; in Table 4 the label is the acid whose AQ4N disalt was measured
Procedure: Stock solutions of individual AQ4N salts were prepared by transferring about 1 mg, accurately weighed, and diluting with water to obtain solutions of 1.4 mM. The solution was vortexed for 3 min using a Fisons WhirlMixer™ (Loughborough, Leicestershire, UK). All AQ4N salt solutions were prepared on the same day as determination of the pH value of the solutions, which was done using a digital pH meter (calibrated at 21±1° C. with standard buffers of pH 7.00 and 4.00 from BDH (UK).

[2] = cited from earlier work; for pKa at 25° C. (pKa1): Table 1, pKa1; for pKa at 25° C.: Table 1, pKa index not given; for pKa1 of acid used to prepare AQ4N disalt: value of the free acid, from IUPAC Handbook of Pharmaceutical Salts
[3] = Degradation of AQ4N dihydrochloride in solution at 40° C.: accumulation of AQMN (HPLC); format: physicochemical; conditions: for AQMN increase per day: 14 days, % w.r.t. AQ4N
Procedure: The degradation of AQ4N was investigated using 5 mg/ml solutions of AQ4N at a pH of 2.4, 4.5 and 6.8, which equated to water, 20 mM sodium acetate buffer and 20 mM sodium orthophosphate buffer, respectively. The primary degradation pathway of AQ4N is its conversion to AQMN. The increase in AQMN concentration in 5 mg/ml solutions incubated at 40° C. over an intermediate time period (14 days) is shown in FIG. 3.
The effect of pH on the stability of AQ4N was determined by investigating AQ4N degradation in different solutions. The solutions chosen were again distilled water, 20 mM sodium acetate buffer (pH=4) and 20 mM sodium phosphate buffer (pH=7). After preparation of the 5 mg/ml AQ4N buffered solutions the pH was corrected to the required pH of the buffer. The final pHs were 2.4, 4.5 and 6.8 for the distilled water, 20 mM sodium acetate buffer and 20 mM sodium phosphate buffer, respectively. The samples were incubated at 40° C. and sampled at regular intervals. Assay was carried out by sample dilution followed by HPLC analysis.

measured pH of AQ4N di-salt solutions (1.4 mM) [1]: 3.5
Molecule: CC(O)C(=O)O (racemic) [Lactic, Lactic acid]

Molecule: CC(CC(=O)O)(CC(=O)O)C(=O)O [2-Methylpropane-1,2,3-triscarboxylic]
pKa at 25° C. (pKa1) [2]: 3.53 (pKa1)

AQMN increase per day ([3]; 20 mM sodium acetate buffer, pH 4.5, 5 mg/ml solution): 0.19%
AQMN increase per day ([3]; 20 mM sodium orthophosphate buffer (PO4), pH 6.8, 5 mg/ml solution): 0.02%
AQMN increase per day ([3]; H2O, pH 2.4, 5 mg/ml solution): 0.84%
AQMN increase per month ([3]; phosphate buffer, 5 mg/ml solution, 63 days): 0.6%
measured pH of AQ4N di-salt solutions (1.4 mM) [1]: 2.4
Molecule: C[N+](C)([O-])CCNc1ccc(NCC[N+](C)(C)[O-])c2c1C(=O)c1c(O)ccc(O)c1C2=O.Cl.Cl [AQ4N dihydrochloride]

measured pH of AQ4N di-salt solutions (1.4 mM) [1]: 3.8
Molecule: CC(=O)O [Acetic, acetic acid]

Molecule: O=C1CC(=O)NC(=O)N1 [Barbituric]
pKa at 25° C. [2]: 3.98

Molecule: O=C(O)c1cccc(C(=O)O)c1C(=O)O [Benzene-1,2,3-tricarboxylic (hemimellitic)]
pKa at 25° C. (pKa1) [2]: 2.98 (pKa1)

Molecule: O=C(O)c1cc(C(=O)O)cc(C(=O)O)c1 [Benzene-1,3,5-tricarboxylic (trimesic)]
pKa at 25° C. (pKa1) [2]: 3.16 (pKa1)

Molecule: O=C(O)c1cc(C(=O)O)c(C(=O)O)c(C(=O)O)c1C(=O)O [Benzenepentacarboxylic]
pKa at 25° C. (pKa1) [2]: 2.34 (pKa1)

measured pH of AQ4N di-salt solutions (1.4 mM) [1]: 2.5
Molecule: O=S(=O)(O)c1ccccc1 [Benzenesulfonic, benzenesulfonic acid]
pKa1 of acid used to prepare AQ4N disalt [2]: −2.5

Molecule: OCCN(CCO)C(CO)(CO)CO [Bis(2-hydroxyethyl)iminotris(hydroxymethyl)methane]
pKa at 25° C. [2]: 6.46

Molecule: COc1cc2c(cc1OC)[C@@]13CCN4CC5=CCO[C@H]6CC(=O)N2[C@H]1[C@H]6[C@H]5C[C@H]43.O.O.O.O [Brucine tetrahydrate]
pKa at 25° C. (pKa1) [2]: 2.30 (pKa1)

measured pH of AQ4N di-salt solutions (1.4 mM) [1]: 3.3
Molecule: O=C(O)CC(O)(CC(=O)O)C(=O)O [Citric, citric acid]

Molecule: O=C(O)C(Cl)Cl [Dichloroacetic, dichloroacetic acid]
measured pH of AQ4N di-salt solutions (1.4 mM) [1]: 2.4

Molecule: NCC(=O)NCC(=O)O [Glycylglycine] (H-Gly-Gly-OH)
pKa at 25° C. [2]: 3.06

Molecule: Cl [Hydrochloric, hydrochloric acid]
measured pH of AQ4N di-salt solutions (1.4 mM) [1]: 2.4

Molecule: C=C(CC(=O)O)C(=O)O [Itaconic]
pKa at 25° C. (pKa1) [2]: 3.84 (pKa1)

measured pH of AQ4N di-salt solutions (1.4 mM) [1]: 2.6
Molecule: O=C(O)/C=C\C(=O)O [Maleic, maleic acid]

Molecule: O=C(O)CC(O)C(=O)O (centres unmarked) [Malic]
pKa at 25° C. (pKa1) [2]: 3.40 (pKa1)
pKa at 25° C. (pKa2) ([2]; Table 1, pKa2): 5.05 (pKa2)

measured pH of AQ4N di-salt solutions (1.4 mM) [1]: 2.8
Molecule: O=C(O)CC(=O)O [Malonic, malonic acid]

Molecule: O=C(O)c1ccccc1C(=O)O [Phthalic]
pKa at 25° C. [2]: 2.90

measured pH of AQ4N di-salt solutions (1.4 mM) [1]: 3.8
Molecule: O=C(O)CCCCCC(=O)O [Pimelic, pimelic acid]
pKa at 25° C. [2]: 4.48
pKa1 of acid used to prepare AQ4N disalt [2]: 4.48

Molecule: C/C=C/C=C/C(=O)O [Sorbic]
pKa at 25° C. [2]: 4.76

measured pH of AQ4N di-salt solutions (1.4 mM) [1]: 2.8
Molecule: O=C(O)C(O)C(O)C(=O)O (centres unmarked) [Tartaric, tartaric acid]

measured pH of AQ4N di-salt solutions (1.4 mM) [1]: 3.8
Molecule: AQ4N di-acetate [Example 14]

Molecule: AQ4N di-benzenesulfonate [Example 6]
measured pH of AQ4N di-salt solutions (1.4 mM) [1]: 2.4

Molecule: AQ4N di-dichloroacetate [Example 7]
measured pH of AQ4N di-salt solutions (1.4 mM) [1]: 2.5

measured pH of AQ4N di-salt solutions (1.4 mM) [1]: 3.8
Molecule: AQ4N di-pimelate [Example 13]

Reference: patent US20050256188A1, “Formulations of anthraquinone derivatives” (priority 2002, published 2005)
